Reference: patent publication US8318947B2, “Comestible compositions comprising high potency savory flavorants, and processes for producing them” (Senomyx, Inc., priority 2006, dated 2012)

Experiments:
trained tasters = assay: Pizza sauce triangle difference taste test; type: in vivo, human
Method: For effective formulation in pizza sauce, a water soluble savory flavor concentrate formulation comprising 0.1% of Compound 1 was developed by dissolution in propylene glycol.
18221.7600 g of propylene glycol (supplied by Gold Coast, Inc.) was weighed out into a 2000 ml stainless steel cylinder, 18.2400 grams of Compound 1 was slowly added to 700.00 g of the propylene glycol using a Silverson Mill (model: L4RT) having a square hole high shear screen and set at 2000 rpm, until all of the dry 5807 (Compound 1) was added to the propylene glycol, the mill rpms was increased to 5,000-6,000 rpm's for 8-10 minutes. The remaining 17,521.76 g of propylene glycol was placed into a 10-gallon steam jacketed kettle equipped with a Lightnin Mixer utilizing a three blade impeller and heated to 50° C. (120° F.), then the milled solution was slowly added to the heated and agitated propylene glycol in the kettle. It took over 30 minutes of heating and mixing to completely solubilize Compound 1, then, the solution was allowed to cool to 80° F., then a Unispense Filler was used to fill sterilized 2 oz. glass containers with 62 grams of the liquid savory flavor, for storage. The water activity of the solution was 0.953@24.7° C., the refractive index was 1.4328, and the final concentration of this savory flavor was 0.10% of Compound 1.
Two pizza sauce samples, one comprising 0.4% of MSG and one containing no MSG, but comprising 1.1 ppm of Compound 1 were prepared using the ingredients listed in Tables 391 and 39-2 below, using the following procedure.
Salt, citric acid, sugar, the spices and herbs, including the MSG, were pre-blended as solids at 80-100 rpms in a 6 quart bowl and mixed using a KitchenAide blender for 5 minutes using a whip attachment. Water was placed in a clean kettle and stirred with a Lightnin mixer at 120-200 rpms to create a vortex. The savory flavor form of Compound 1, 0.10%, was slowly added to the water and mixed for five minutes. The vinegar and solid spice mixture was slowly added with the mixer still blending at 80-100 rpms until the dry seasonings were dissolved, approximately 5 minutes. The tomato paste was added and the slurry was mixed an additional 10. The resulting pizza sauce was transferred to a stainless steel six quart pot on a gas burner and was heated to pasteurizing temperature (175-190° F.) and held for a minimum of two minutes, cooled down to ambient (70+/−2° F.) temperature.
Ten trained tasters were trained to identify relative intensities of the following taste attributes: salty, savory/meaty, umami, brothiness, bitter, linger and off flavors. A triangle difference test determines if there is a sensory difference between two products. Three blinded, coded and randomized samples are presented to the panelist. Two samples are the same and one is different. To answer the test correctly, the panelist must taste all three samples and correctly pick out the sample they feel is different from the other two.
The samples were blind coded and presented in randomized order. The panelists each performed a total of two triangle tests, with 3 samples per test
a. Test 1: 2 samples with 1.1 ppm Compound 1; one sample with MSG.
b. Test 2: 2 samples with MSG; one sample with 1.1 ppm Compound 1.

[1] = test system: human subjects, savory taste; assay: Human taste test of low sodium tomato juice; type: in vivo; settings: 3 μM cpd; 400 mg Na/8 oz tomato juice
Method: Human taste tests were conducted in order to evaluate the ability of the compounds of the invention to enhance the savory flavor of low sodium tomato juice (which naturally comprises some monosodium glutamate).
The final tomato juice samples for taste testing were prepared so as to comprise 90% (by volume) pre-made low sodium tomato juice stock (pH 4.2, 80˜100 mg Na/8 oz, 16 mM of naturally occurring MSG), 5% (by volume) of stock solutions formulated to produce selected final levels of sodium of final juice, and 5% (by volume) of a stock solution of the compound of the invention. Selected oxalamide compounds of the invention were dissolved in LSB (low sodium phosphate buffer), to provide a stock solution at 20 times the desired final concentration in the final tomato juice. The desired final sodium concentration of the final tomato juice was most experiments 73.6 mM (400 mg sodium in 8 oz. of juice), therefore a stock solution of NaCl was made at 1.48 M NaCl. The pH for the stock solutions was adjusted to 4.2 using a 1 M citric acid solution, and the stock solutions were sonicated to ensure the additive compounds were completely dissolved. […]
Scores were averaged across panelists and sessions, and evaluated using a 2-way ANOVA (factors: panelists and samples) and Duncan's multiple comparison test (alpha=0.05) to determine significant differences in intensity ratings.

[2] = Test 1: 2 samples with 1.1 ppm Compound 1, one sample with MSG, 10 panelists
[3] = Test 2: 2 samples with MSG, one sample with 1.1 ppm Compound 1, 10 panelists

Row | SMILES | Distinguishing pizza sauce with compound (no MSG) from pizza sauce with full loading of MSG (trained tasters; 1.1 ppm Compound 1 vs 0.4% MSG) | # Correct (trained tasters; [2]) | # Incorrect (trained tasters; [2]) | # Correct (trained tasters; [3]) | # Incorrect (trained tasters; [3]) | # Correct (trained tasters; Totals, n = 20) | # Incorrect (trained tasters; Totals, n = 20) | Enhancement of the savory taste of 16 mM glutamate (naturally existing) in low sodium tomato juice [1]
1 | CCCC(CCC)NC(=O)c1ccc2c(c1)OCO2 [Example 1, N-(heptan-4-yl)benzo[d][1,3]dioxole-5-carboxamide] | could not distinguish between the sauces | 3 | 7 | 6 | 4 | 9 | 11 | 
2 | COc1ccc(CNC(=O)C(=O)NCCc2ccccn2)c(OC)c1 [Example 24, N-(2,4-Dimethoxy-benzyl)-N′-(2-pyridin-2-yl-ethyl)-oxalamide] |  |  |  |  |  |  |  | by 1.4 to 1.5-fold
